# Reference: ChEMBL document CHEMBL3871295, “N-Propargylpiperidines with naphthalene-2-carboxamide or naphthalene-2-sulfonamide moieties: Potential multifunctional anti-Alzheimer's agents” (Bioorg Med Chem, 2017)
# Active and inactive are the calls of the source. No cut-off for these calls is given here.
# Organism: Homo sapiens
# Test: Selectivity ratio of IC50 for human recombinant microsomal MAO-A expressed in baculovirus-infected insect cells to IC50 for human recombinant microsomal MAO-B expressed in baculovirus-infected insect cells
# Conditions: not given
row,SMILES,Ratio IC50
1,C#CCN1CCCC(CN(CCCOC)S(=O)(=O)c2ccc3ccccc3c2)C1 (configuration not stated),1
2,C#CCN1CCC(CNS(=O)(=O)c2ccc3ccccc3c2)CC1,> 1.86
3,C#CCN1CCCC(CN(CCOC)S(=O)(=O)c2ccc3ccccc3c2)C1 (configuration not stated),1
4,C#CCN1CCC(CN(CCCOC)S(=O)(=O)c2ccc3ccccc3c2)CC1,1
5,C#CCN1CCCC(CN(CCCOC)C(=O)c2ccc3ccccc3c2)C1 (configuration not stated),1
6,C#CCN1CCCC(CNC(=O)c2ccc3ccccc3c2)C1 (configuration not stated),> 1.69

# Test system: not listed separately
# Test: Cytotoxicity against human SH-SY5Y cells measured after 48 hrs by MTS assay
# Format: toxicity, cell-based
# Conditions: read-out: LD50
row,SMILES,CC50 at 48 h
1,C#CCN1CCCC(CN(CCCOC)S(=O)(=O)c2ccc3ccccc3c2)C1 (configuration not stated),48.1 µM
2,C#CCN1CCC(CNS(=O)(=O)c2ccc3ccccc3c2)CC1,242 µM

# Molecular target: T1, Amine oxidase [flavin-containing] B (Homo sapiens, UniProt P27338)
# T1 sequence (P27338 whole entry): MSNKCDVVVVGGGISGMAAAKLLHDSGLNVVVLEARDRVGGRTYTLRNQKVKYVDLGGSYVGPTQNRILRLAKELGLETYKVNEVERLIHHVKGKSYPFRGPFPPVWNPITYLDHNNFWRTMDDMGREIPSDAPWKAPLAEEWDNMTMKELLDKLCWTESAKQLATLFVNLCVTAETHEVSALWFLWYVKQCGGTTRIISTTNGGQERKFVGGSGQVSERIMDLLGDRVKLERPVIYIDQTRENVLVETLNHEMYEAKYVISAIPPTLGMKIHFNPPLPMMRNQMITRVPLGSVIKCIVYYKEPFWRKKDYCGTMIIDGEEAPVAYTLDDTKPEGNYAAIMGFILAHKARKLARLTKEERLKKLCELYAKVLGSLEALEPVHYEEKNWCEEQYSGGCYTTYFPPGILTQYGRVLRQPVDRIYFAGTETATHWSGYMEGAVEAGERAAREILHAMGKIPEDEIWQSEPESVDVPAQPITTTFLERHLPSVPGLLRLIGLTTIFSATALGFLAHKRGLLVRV
# Test: biochemical
# Format: cell-based
# Conditions: not given
row,SMILES,IC50
1,C#CCN1CCCC(CN(CCCOC)S(=O)(=O)c2ccc3ccccc3c2)C1 (configuration not stated),> 100 µM
2,C#CCN1CCC(CNS(=O)(=O)c2ccc3ccccc3c2)CC1,53.9 µM
3,C#CCN1CCCC(CN(CCOC)S(=O)(=O)c2ccc3ccccc3c2)C1 (configuration not stated),> 100 µM
4,C#CCN1CCC(CN(CCCOC)S(=O)(=O)c2ccc3ccccc3c2)CC1,> 100 µM
5,C#CCN1CCCC(CN(CCCOC)C(=O)c2ccc3ccccc3c2)C1 (configuration not stated),> 100 µM
6,C#CCN1CCCC(CNC(=O)c2ccc3ccccc3c2)C1 (configuration not stated),59.3 µM

# Test system: SH-SY5Y
# Test: Neuroprotective activity against amyloid beta (1 to 42) induced cell death in human SH-SY5Y cells assessed as cell viability at 5 uM measured after 48 hrs by MTS assay
# Format: functional, cell-based
# Conditions: not given
row,SMILES,Activity
1,C#CCN1CCC(CNS(=O)(=O)c2ccc3ccccc3c2)CC1,Active

# Test system: not listed separately
# Test: Cytotoxicity against human SH-SY5Y cells at […] measured after 48 hrs by MTS assay
# Format: toxicity, cell-based
# Conditions: not given
row,SMILES,Activity
1,C#CCN1CCCC(CN(CCCOC)S(=O)(=O)c2ccc3ccccc3c2)C1 (configuration not stated),Non-Toxic

# Molecular target: T1, Amine oxidase [flavin-containing] B
# Test: Time-dependent inhibition of human recombinant microsomal MAO-B expressed in baculovirus-infected insect cells preincubated for 5 to 30 mins by IC50 shift assay
# Conditions: not given
row,SMILES,TDI
1,C#CCN1CCC(CNS(=O)(=O)c2ccc3ccccc3c2)CC1,Active

# Molecular target: Amyloid-beta precursor protein (Homo sapiens) (UniProt P05067)
# Sequence (P05067 whole entry): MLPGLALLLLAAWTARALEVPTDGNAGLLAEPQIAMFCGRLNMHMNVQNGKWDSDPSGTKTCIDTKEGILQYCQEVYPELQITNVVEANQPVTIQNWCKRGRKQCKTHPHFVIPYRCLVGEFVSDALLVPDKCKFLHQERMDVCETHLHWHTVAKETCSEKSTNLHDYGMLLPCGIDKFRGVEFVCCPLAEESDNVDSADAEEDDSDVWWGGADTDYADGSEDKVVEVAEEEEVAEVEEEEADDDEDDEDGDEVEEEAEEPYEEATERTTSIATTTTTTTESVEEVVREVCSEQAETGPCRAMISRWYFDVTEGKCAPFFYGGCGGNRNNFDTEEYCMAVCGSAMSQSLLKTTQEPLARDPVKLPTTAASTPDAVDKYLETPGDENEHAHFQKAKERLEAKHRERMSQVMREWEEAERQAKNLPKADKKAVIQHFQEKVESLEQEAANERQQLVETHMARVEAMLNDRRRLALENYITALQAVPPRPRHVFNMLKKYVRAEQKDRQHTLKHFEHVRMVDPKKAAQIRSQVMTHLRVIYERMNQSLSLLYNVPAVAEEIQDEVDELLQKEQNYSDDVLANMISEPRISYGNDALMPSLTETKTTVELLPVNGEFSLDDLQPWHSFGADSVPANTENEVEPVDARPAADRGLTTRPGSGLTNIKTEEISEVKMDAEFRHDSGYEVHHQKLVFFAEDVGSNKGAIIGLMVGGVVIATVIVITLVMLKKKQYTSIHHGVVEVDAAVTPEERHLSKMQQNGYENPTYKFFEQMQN
# Test: Inhibition of HFIP-pretreated recombinant human amyloid beta (1 to 42) self-induced aggregation at 10 uM measured after 20 hrs for every 300 secs by thioflavin-T based fluorometric assay relative to control
# Conditions: not given
row,SMILES,inhibition
1,C#CCN1CCCC(CN(CCCOC)S(=O)(=O)c2ccc3ccccc3c2)C1 (configuration not stated),< 10%
2,C#CCN1CCC(CNS(=O)(=O)c2ccc3ccccc3c2)CC1,< 10%
3,C#CCN1CCCC(CN(CCOC)S(=O)(=O)c2ccc3ccccc3c2)C1 (configuration not stated),< 10%
4,C#CCN1CCC(CN(CCCOC)S(=O)(=O)c2ccc3ccccc3c2)CC1,< 10%
5,C#CCN1CCCC(CN(CCCOC)C(=O)c2ccc3ccccc3c2)C1 (configuration not stated),< 10%
6,C#CCN1CCCC(CNC(=O)c2ccc3ccccc3c2)C1 (configuration not stated),< 10%

# Molecular target: T1, Amine oxidase [flavin-containing] B
# Test: Irreversible inhibition of human recombinant microsomal MAO-B expressed in baculovirus-infected insect cells at 10 times IC50 preincubated for 15 mins followed by dilution to […] and subsequent addition of p-tyramine hydrochloride substrate measured for 30 mins by amplex red assay relative to control
# Conditions: 0.5 h
row,SMILES,inhibition (INH)
1,C#CCN1CCC(CNS(=O)(=O)c2ccc3ccccc3c2)CC1,> 70%

# Test system: BChE
# Test: in vitro
# Conditions: human, SH-SY5Y cells
# Description: Selectivity index, ratio of LD50 for cytotoxicity against human SH-SY5Y cells to IC50 for human recombinant Bche
row,SMILES,selectivity ratio
1,C#CCN1CCCC(CN(CCCOC)S(=O)(=O)c2ccc3ccccc3c2)C1 (configuration not stated),375
2,C#CCN1CCC(CNS(=O)(=O)c2ccc3ccccc3c2)CC1,90

# Molecular target: T2, Acetylcholinesterase (Mus musculus, UniProt P21836)
# T2 sequence (P21836 whole entry): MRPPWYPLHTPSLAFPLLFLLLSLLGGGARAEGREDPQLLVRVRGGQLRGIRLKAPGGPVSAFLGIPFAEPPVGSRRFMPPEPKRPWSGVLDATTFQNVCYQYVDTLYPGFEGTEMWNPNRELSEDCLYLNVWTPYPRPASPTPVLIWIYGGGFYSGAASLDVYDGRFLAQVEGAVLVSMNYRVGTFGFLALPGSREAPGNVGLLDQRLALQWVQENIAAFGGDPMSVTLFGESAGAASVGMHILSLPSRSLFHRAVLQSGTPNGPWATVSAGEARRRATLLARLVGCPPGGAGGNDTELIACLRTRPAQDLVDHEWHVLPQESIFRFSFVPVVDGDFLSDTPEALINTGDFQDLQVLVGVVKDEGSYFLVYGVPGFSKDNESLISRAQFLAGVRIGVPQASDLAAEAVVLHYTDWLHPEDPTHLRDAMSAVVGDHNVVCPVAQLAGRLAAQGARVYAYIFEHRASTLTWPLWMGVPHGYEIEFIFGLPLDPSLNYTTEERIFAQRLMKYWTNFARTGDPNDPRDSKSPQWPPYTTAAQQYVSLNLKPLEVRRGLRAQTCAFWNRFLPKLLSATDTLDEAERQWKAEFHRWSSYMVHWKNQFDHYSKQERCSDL
# Test: not given
# Conditions: not given
row,SMILES,IC50
1,C#CCN1CCCC(CN(CCCOC)S(=O)(=O)c2ccc3ccccc3c2)C1 (configuration not stated),> 100 µM
2,C#CCN1CCC(CNS(=O)(=O)c2ccc3ccccc3c2)CC1,> 100 µM
3,C#CCN1CCCC(CN(CCOC)S(=O)(=O)c2ccc3ccccc3c2)C1 (configuration not stated),> 100 µM
4,C#CCN1CCC(CN(CCCOC)S(=O)(=O)c2ccc3ccccc3c2)CC1,> 100 µM
5,C#CCN1CCCC(CN(CCCOC)C(=O)c2ccc3ccccc3c2)C1 (configuration not stated),> 100 µM
6,C#CCN1CCCC(CNC(=O)c2ccc3ccccc3c2)C1 (configuration not stated),> 100 µM

# Test system: not listed separately
# Test: Cytotoxicity against human SH-SY5Y cells at 5 uM measured after 48 hrs by MTS assay
# Format: toxicity, cell-based
# Conditions: not given
row,SMILES,Activity
1,C#CCN1CCC(CNS(=O)(=O)c2ccc3ccccc3c2)CC1,Non-Toxic

# Test system: MAO-B
# Test: Selectivity index, ratio of LD50 for cytotoxicity against human SH-SY5Y cells to IC50 for human recombinant microsomal MAO-B expressed in baculovirus-infected insect cells
# Format: toxicity
# Conditions: read-out: Ratio LD50/IC50
row,SMILES,selectivity ratio
1,C#CCN1CCC(CNS(=O)(=O)c2ccc3ccccc3c2)CC1,4

# Molecular target: Cholinesterase (Homo sapiens, UniProt P06276)
# Sequence (P06276 whole entry): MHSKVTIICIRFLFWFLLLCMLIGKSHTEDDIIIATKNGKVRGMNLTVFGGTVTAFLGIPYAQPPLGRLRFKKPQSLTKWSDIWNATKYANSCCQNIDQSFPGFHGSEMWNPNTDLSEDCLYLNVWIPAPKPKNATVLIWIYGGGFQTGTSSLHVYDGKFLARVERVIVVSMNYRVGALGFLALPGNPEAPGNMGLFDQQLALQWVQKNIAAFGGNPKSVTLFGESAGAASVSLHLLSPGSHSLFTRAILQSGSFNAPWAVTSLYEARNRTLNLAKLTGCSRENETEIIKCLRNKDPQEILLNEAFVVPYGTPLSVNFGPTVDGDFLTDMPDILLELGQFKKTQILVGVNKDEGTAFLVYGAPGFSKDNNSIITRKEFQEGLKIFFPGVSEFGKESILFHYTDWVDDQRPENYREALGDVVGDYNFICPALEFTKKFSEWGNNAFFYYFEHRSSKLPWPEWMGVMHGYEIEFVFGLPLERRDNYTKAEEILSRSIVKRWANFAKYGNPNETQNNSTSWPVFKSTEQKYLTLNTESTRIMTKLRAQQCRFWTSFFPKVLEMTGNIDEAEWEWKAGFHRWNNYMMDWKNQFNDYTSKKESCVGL
# Test: not given
# Conditions: not given
row,SMILES,IC50
1,C#CCN1CCCC(CN(CCCOC)S(=O)(=O)c2ccc3ccccc3c2)C1 (configuration not stated),127 nM
2,C#CCN1CCC(CNS(=O)(=O)c2ccc3ccccc3c2)CC1,2600 nM
3,C#CCN1CCCC(CN(CCOC)S(=O)(=O)c2ccc3ccccc3c2)C1 (configuration not stated),137 nM
4,C#CCN1CCC(CN(CCCOC)S(=O)(=O)c2ccc3ccccc3c2)CC1,281 nM
5,C#CCN1CCCC(CN(CCCOC)C(=O)c2ccc3ccccc3c2)C1 (configuration not stated),8640 nM
6,C#CCN1CCCC(CNC(=O)c2ccc3ccccc3c2)C1 (configuration not stated),23400 nM

# Test system: SH-SY5Y
# Test: Neuroprotective activity against amyloid beta (1 to 42) induced cell death in human SH-SY5Y cells assessed as cell viability at […] measured after 48 hrs by MTS assay
# Format: functional, cell-based
# Conditions: not given
row,SMILES,Activity
1,C#CCN1CCCC(CN(CCCOC)S(=O)(=O)c2ccc3ccccc3c2)C1 (configuration not stated),Active

# Molecular target: T3, Amine oxidase [flavin-containing] A (Homo sapiens, UniProt P21397)
# T3 sequence (P21397 whole entry): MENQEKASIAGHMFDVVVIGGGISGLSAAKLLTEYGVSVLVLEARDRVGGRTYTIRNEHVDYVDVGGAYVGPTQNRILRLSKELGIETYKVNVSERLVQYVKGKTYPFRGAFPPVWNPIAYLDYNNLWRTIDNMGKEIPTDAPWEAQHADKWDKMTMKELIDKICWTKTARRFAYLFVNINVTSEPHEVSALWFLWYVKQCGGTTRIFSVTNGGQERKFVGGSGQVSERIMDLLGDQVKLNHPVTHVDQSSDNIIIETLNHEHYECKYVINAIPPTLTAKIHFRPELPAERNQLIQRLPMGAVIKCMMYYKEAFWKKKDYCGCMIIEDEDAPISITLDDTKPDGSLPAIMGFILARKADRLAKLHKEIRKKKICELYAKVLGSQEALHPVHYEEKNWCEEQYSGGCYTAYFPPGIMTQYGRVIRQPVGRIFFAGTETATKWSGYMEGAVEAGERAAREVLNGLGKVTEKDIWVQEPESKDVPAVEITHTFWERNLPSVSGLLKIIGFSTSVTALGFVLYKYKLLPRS
# Test: biochemical
# Conditions: not given
row,SMILES,IC50
1,C#CCN1CCCC(CN(CCCOC)S(=O)(=O)c2ccc3ccccc3c2)C1 (configuration not stated),> 100 µM
2,C#CCN1CCC(CNS(=O)(=O)c2ccc3ccccc3c2)CC1,> 100 µM
3,C#CCN1CCCC(CN(CCOC)S(=O)(=O)c2ccc3ccccc3c2)C1 (configuration not stated),> 100 µM
4,C#CCN1CCC(CN(CCCOC)S(=O)(=O)c2ccc3ccccc3c2)CC1,> 100 µM
5,C#CCN1CCCC(CN(CCCOC)C(=O)c2ccc3ccccc3c2)C1 (configuration not stated),> 100 µM
6,C#CCN1CCCC(CNC(=O)c2ccc3ccccc3c2)C1 (configuration not stated),> 100 µM
